Key:
[1] = tested on: VSV-G-pseudotype virus (pVSV-G); assay: microbe, parasite or virus in culture; format: cell-based; details: Vesicular stomatitis virus; read-out: %inh@10µM (pVSV-G)
[2] = tested on: wild-type EBOV (Orthoebolavirus zairense, Mayinga variant); details: for EC50: read-out: EC50 (EBOV)
[3] = tested on: EBOV-GP-pseudotype virus (pEBOV)
in vitro [4] = details: for CC50 at 24 h: chlorocebus sabaeus; for CC50: African green monkey
in vitro [5] = details: CD-1, mouse, microsomes, pH 7.4
in vitro [6] = details: human, microsomes, pH 7.4
[7] = pH 7.4
[8] = CD-1, mouse, pH 7.4
[9] = PAMPA
[10] = tested on: EBOV-GP-pseudotype virus (pEBOV); assay: microbe, parasite or virus in culture; details: Zaire ebolavirus; for EC50: Vero C1008, read-out: EC50 (pEBOV); for inhibition at 10 µM: Vero C1008, read-out: %inh@10 μM (pEBOV)
in vitro [11] = details: PAMPA, pH 7.4
VeroE6 cells = details: cited from earlier work
[12] = tested on: EBOV-GP-pseudotype virus (pEBOV); details: cited from earlier work
EBOV-GP protein = EBOV-GP protein (Zaire ebolavirus, UniProt Q05320); format: binding, Ebola virus
[13] = target: EBOV-GPcl/NPC1-domain C interaction (Zaire ebolavirus, UniProt Q05320); format: binding; details: 50 μM

Row | Compound | inhibition at 10 µM [1] [%] | SI (CC50/EC50), replicative EBOV [2] | EC50 [2] [µM] | CC50 at 24 h (in vitro [4]) [µM] | half-life at 10 µM (in vitro [5]) [min] | half-life at 10 µM (in vitro [6]) [min] | metabolic stability in human liver microsomes CLint [7] [mL/min/mg protein] | metabolic stability in mouse liver microsomes CLint [8] [mL/min/mg protein] | prediction of CNS penetration [9] | EC50 [10] [µM] | antiviral activity against pEBOV, in words [3] | inhibition at 10 µM [10] [%] | other results
1 | O=C(CCN1CCCC1)Nc1ccccc1Nc1cc(Cl)ccc1[N+](=O)[O-] [compound 17, N-(2-((5-Chloro-2-nitrophenyl)amino)phenyl)-3-(pyrrolidin-1-yl)propanamide] | -133 | 38.5 | 6.48 | 250 | 20 ± 3 | 136.2 ± 0.5 | 4.19 ± 0.02 | 130 ± 17 | SNC + | 8.94 | – | – | SI (pEBOV) (CC50/EC50) [3]: 27.9; increase in metabolic stability in human microsomes [7]: 195%
2 | O=C(CN1CCCCC1)Nc1ccccc1Sc1cc(Cl)ccc1[N+](=O)[O-] [compound 9, N-(2-((5-Chloro-2-nitrophenyl)thio)phenyl)-2-(piperidin-1-yl)acetamide] | – | – | – | – | – | – | – | – | – | – | no activity | -10 | CC50 (in vitro [4]): > 200 µM
3 | O=C(CNCc1ccccc1)Nc1ccccc1Sc1cc(Cl)ccc1[N+](=O)[O-] [compound 10, 2-(Benzylamine)-N-(2-((5-chloro-2-nitrophenyl)thio)phenyl)acetamide] | – | – | – | – | – | – | – | – | – | – | no activity | 18 | CC50 (in vitro [4]): > 200 µM
4 | O=C(CCNCCc1ccccc1)Nc1ccccc1Sc1cc(Cl)ccc1[N+](=O)[O-] [compound 14, N-(2-((5-Chloro-2-nitrophenyl)thio)phenyl)-3-(phenethylamino)propanamide] | – | – | – | – | – | – | – | – | – | – | no activity | 23 | CC50 (in vitro [4]): > 200 µM
5 | O=C(CCN1CCCC1)Nc1ccccc1Sc1cc(Cl)ccc1[N+](=O)[O-] [compound 12, N-(2-((5-Chloro-2-nitrophenyl)thio)phenyl)-3-(pyrrolidin-1-yl)propanamide] | 36 | – | – | 300 | 10 ± 3 | 46 ± 2 | 12.5 ± 0.6 | 260 ± 80 | SNC + | 4.9 | – | – | EC50 (EBOV) [2]: inactive; SI (pEBOV) (CC50/EC50) [3]: 61.2
6 | CN(C)CCCN1c2ccccc2Sc2ccccc21 [Promazine, reference compound] | – | – | – | – | – | – | – | – | CNS+ | – | – | – | Papp (in vitro [11]): 9.1 ± 1.3 ×10⁻⁶ cm/s
7 | CN1C(C(=O)Nc2ccccn2)=C(O)c2ccccc2S1(=O)=O [Piroxicam, reference compound] | – | – | – | – | – | – | – | – | CNS− | – | – | – | Pe ([9]; pH 7.4): 1.6 ± 0.7
8 | O=C(CNCCC1CCN(Cc2ccccc2)CC1)Nc1ccccc1Sc1cc(Cl)ccc1[N+](=O)[O-] [compound 11, 2-((2-(1-Benzylpiperidin-4-yl)ethyl)amino)-N-(2-((5-chloro-2-nitrophenyl)thio)phenyl)acetamide] | 38 | 28.8 | 5.2 | 150 | 6 ± 1 | 23 ± 4 | 25 ± 4 | 390 ± 70 | SNC + | 5.61 | – | – | SI (pEBOV) (CC50/EC50) [3]: 26.7
9 | O=C(CCNCCc1ccccc1)Nc1ccccc1Nc1cc(Cl)ccc1[N+](=O)[O-] [compound 19, N-(2-((5-Chloro-2-nitrophenyl)amino)phenyl)-3-(phenethylamino)propanamide] | – | – | – | 15 | – | – | – | – | – | – | inactive | 15 | –
10 | NC(=O)c1nc(F)c[nH]c1=O [Favipiravir, reference compound] | – | – | – | – | – | – | – | – | – | – | – | – | CC50 (VeroE6 cells): > 1000 µM
11 | Cn1c(=O)c2c(ncn2C)n(C)c1=O [Caffeine, reference compound] | – | – | – | – | – | – | – | – | CNS− | – | – | – | Papp (in vitro [11]): 1.5 ± 0.3 ×10⁻⁶ cm/s
12 | O=C(CN1CCCC1)NNc1ccccc1Sc1cc(Cl)ccc1[N+](=O)[O-] [SC073] | – | 18.6 | 4.3 | – | – | – | – | – | SNC + | – | – | – | SI (CC50/EC50) of the hits, pEBOV [12]: 27.5; CC50 (VeroE6 cells): 80 µM
13 | CCN(CC)CCC(=O)Nc1ccccc1Sc1cc(Cl)ccc1[N+](=O)[O-] [compound 13, N-(2-((5-Chloro-2-nitrophenyl)thio)phenyl)-3-(diethylamino)propanamide] | -5 | 3.3 | 44.5 | 150 | 6.4 ± 0.9 | 16 ± 3 | 36 ± 8 | 390 ± 60 | SNC + | 8.87 | – | – | SI (pEBOV) (CC50/EC50) [3]: 16.9
14 | CCn1cc(C(=O)O)c(=O)c2cc(F)c(N3CCNCC3)nc21 [Enoxacin, reference compound] | – | – | – | – | – | – | – | – | CNS− | – | – | – | Papp (in vitro [11]): 1.2 ± 0.2 ×10⁻⁶ cm/s
15 | O=C(CN1CCCC1)Nc1ccccc1Sc1cc(Cl)ccc1[N+](=O)[O-] [compound 7, N-(2-((5-Chloro-2-nitrophenyl)thio)phenyl)-2-(pyrrolidin-1-yl)acetamide] | – | – | – | – | – | – | – | – | – | – | inactive | -2 | EC50 (EBOV) [2]: inactive; CC50 (in vitro [4]): > 200 µM
16 | CCN(CC)CCC(=O)Nc1ccccc1Nc1cc(Cl)ccc1[N+](=O)[O-] [compound 18, N-(2-((5-Chloro-2-nitrophenyl)amino)phenyl)-3-(diethylamino)propanamide] | 9 | 5.2 | 28.7 | 150 | 14 ± 6 | 63 ± 5 | 9.1 ± 0.7 | 180 ± 70 | SNC + | 7.65 | – | – | SI (pEBOV) (CC50/EC50) [3]: 19.6; increase in metabolic stability in human microsomes [7]: 294%
17 | O=C(CNCCC1CCN(Cc2ccccc2)CC1)Nc1ccccc1Nc1cc(Cl)ccc1[N+](=O)[O-] [compound 16, 2-((2-(1-Benzylpiperidin-4-yl)ethyl)amino)-N-(2-((5-chloro-2-nitrophenyl)amino)phenyl)acetamide] | -44 | – | 4.42 | 10 | 8 ± 1 | 47 ± 7 | 12 ± 2 | 310 ± 50 | SNC + | 2.43 | – | – | STD-NMR competition with imipramine (EBOV-GP protein): both compounds target the same binding site of EBOV-GP; binding to EBOV-GP by STD-NMR (EBOV-GP protein): binds to the protein; effect on binding of EBOV-GP to NPC1 domain C (ELISA) [13]: interferes with the interaction between NPC1 and EBOV-GP; increase in metabolic stability in human microsomes [7]: 105%
18 | CCN(CC)CC(=O)Nc1ccccc1Sc1cc(Cl)ccc1[N+](=O)[O-] [compound 8, N-(2-((5-Chloro-2-nitrophenyl)thio)phenyl)-2-(diethylamino)acetamide] | – | – | – | – | – | – | – | – | – | – | inactive | -5 | CC50 (in vitro [4]): > 200 µM
19 | CCN(CC)CC(=O)NNc1ccccc1Sc1cc(Cl)ccc1[N+](=O)[O-] [SC198] | – | 8.3 | 6 | – | – | – | – | – | SNC + | – | – | – | SI (CC50/EC50) of the hits, pEBOV [12]: 12.4; CC50 (VeroE6 cells): 50 µM
20 | O=C(CCNCCC1CCN(Cc2ccccc2)CC1)Nc1ccccc1Sc1cc(Cl)ccc1[N+](=O)[O-] [compound 15, 3-((2-(1-Benzylpiperidin-4-yl)ethyl)amino)-N-(2-((5-chloro-2-nitrophenyl)thio)phenyl)propanamide] | – | – | – | 9 | – | – | – | – | – | – | no activity | < 75 | –
